Measurements from US8350007B2, “Crystal structure of human mitoNEET protein” (The Regents of the University of California, priority 2007, dated 2013).

Assays:
serum albumin = serum albumin (Homo sapiens, UniProt P02768); conditions: after patient ingestion, prior to cellular uptake; cited from earlier work
[1] = Blood glucose levels in diabetic ZDF rats treated with rosiglitazone; type: in vivo, rat; conditions: after three weeks of rosiglitazone 10 mg/kg by gavage
Experimental: Sixteen male ZDF rats were housed in filter cages, 2 or 3 animals per cage. Weight and blood glucose levels were measured every week. The blood glucose was measured at the fed state (07:30 am) and after 6 hours fast (1:[…]). The Animals were divided into two groups: a control group, and a rosiglitazone-treated group. Animals were treated daily for 3 weeks once a day, 5 times a week, with rosiglitazone, 10 mg/kg by gavage (0.7 ml) for the rosi-treated rats; or 0.7 ml saline for the control rats. After three weeks, liver, muscle and epididymal fat were collected and immediately frozen.
The average glucose blood level after fed of the control group was >240 mg/dl; in the rosiglitazone-treated rats some responded in a medium manner to the treatment; after three weeks of rosiglitazone treatment their glucose blood levels after fed was ˜120-140 mg/dl and some rats responded very well to rosiglitazone treatment and after three weeks their glucose blood levels after fed was ˜80 mg/dl.

serum albumin, sequence (P02768 25-609): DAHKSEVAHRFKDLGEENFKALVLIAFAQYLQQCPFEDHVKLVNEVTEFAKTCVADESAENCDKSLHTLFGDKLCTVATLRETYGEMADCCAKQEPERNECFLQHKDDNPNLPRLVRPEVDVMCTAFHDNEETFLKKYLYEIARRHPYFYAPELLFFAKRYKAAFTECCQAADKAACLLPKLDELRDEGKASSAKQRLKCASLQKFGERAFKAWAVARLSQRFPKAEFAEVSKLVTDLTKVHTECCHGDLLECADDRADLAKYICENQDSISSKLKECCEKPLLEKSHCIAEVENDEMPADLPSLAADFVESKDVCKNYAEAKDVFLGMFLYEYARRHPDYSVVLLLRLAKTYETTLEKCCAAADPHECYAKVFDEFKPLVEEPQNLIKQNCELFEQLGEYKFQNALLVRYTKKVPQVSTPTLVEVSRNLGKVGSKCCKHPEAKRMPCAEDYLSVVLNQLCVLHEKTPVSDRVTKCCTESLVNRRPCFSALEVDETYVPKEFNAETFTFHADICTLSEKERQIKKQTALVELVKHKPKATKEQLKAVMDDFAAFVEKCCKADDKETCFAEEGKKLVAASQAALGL

| SMILES | binding to serum albumin (serum albumin) | glucose blood levels after fed ([1]; ZDF rats responding in a medium manner) [mg/dL] | glucose blood levels after fed ([1]; ZDF rats responding very well) [mg/dL] |
| --- | --- | --- | --- |
| CCc1ccc(CCOc2ccc(CC3SC(=O)NC3=O)cc2)nc1 (stereo not drawn) [pioglitazone] | largely bound to serum albumin | – | – |
| CN(CCOc1ccc(CC2SC(=O)NC2=O)cc1)c1ccccn1 (stereo not drawn) [rosiglitazone] | – | 120 to 140 | ~80 |
